Reference: patent publication US20200172913A1, “PEPTIDES AND NANOPARTICLES FOR INTRACELLULAR DELIVERY OF VIRUS” (priority 2017, published 2020)
Where two headings read alike, the source gives them in different places. *1 amine or outer side, *2 acyl side, *3 side chain or, on linkers, in order; H or OH if unused. Where a SMILES comes first, the peptide text is derived from it. Where no end group is shown, it is not given here. Cysteamide = C(CS[*:3])N[*:1]

Assays:
[1] = test system: HUVEC cell lines; assay: Cytotoxicity of AAV-CPP complexes, XTT assay; type: cell-based; details: CPP concentration of 500 μM, AAV-6-βGal MOI of 300, XTT after 2 days
Experimental: The cytoxicity of the AAV-CPP complexes was evaluated on HUVEC cell lines. AAV encoding beta galactosidase (AAV-6-βGal) at MOI of 300 were preincubated in PBS with increasing concentration of CPPs ranging from 1 to 500 μM for 30 min. Cells were treated with either free AAV (No CPP) or CPP/AAV complexes for 4 h, then the medium was replaced with fresh medium. Cytotoxicity of AAV-CPP complexes was determined using the XTT assay after 2 days. […] A low cytotoxicity of 5% for PEP-1 and PEP-2 and 8% for Pant were obtained for a CPP concentration of 500 μM.

[2] = test system: HCN2 cells; assay: AAV-1-GFP transduction with CPPs, flow cytometry; type: cell-based, human; details: 200 μM CPP; for cells expressing GFP: AAV-1 MOI of 500, HCN2, 5% in the absence of CPP; for increase of AAV-1 efficiency: MOI of 500, HCN2
Experimental: (§1) In this example different AAV serotypes including AAV 1, AAV2, AAV5, AAV6, AAV8 and AAV9 were tested against human hepatocytes (HepG2) and human neuronal cells (HCN2) in the presence or in the absence of CPPs including ADGN-103a, ADGN-103b, ADGN-100, ADGN-109, ADGN-106, PEP-1, PEP-2, CADY, and TAT-HA2.
(§2) AAV-1, AAV-2, AAV-5, and AAV-6 viruses encoding green fluorescent protein were obtained from Cell Biolabs Inc and AAV-8 from Vector Biolabs. Stock solutions of virus were obtained at 1χ10^13 GC/ml in PBS/0.01% and diluted 50-fold to 2×10^11 GC/ml before use.
(§3) AAV-1, AAV-2, AAV-5, and AAV6 encoding green fluorescent protein were used at low MOI of 500 (1-2×10^7 PFU) and AAV-8 at MOI of 1000 (2-4×10^7 PFU). HepG2 and HCN2 cells (1 10^6 cells per well) were cultured in a 24 well plate culture dish format. For MOI of 1000, 5 μl of AAV virus diluted solutions were preincubated in PBS with increasing concentration of CPPs ranging from 0.1 to 200 μM for 30 min. For MOI of 500, 2.5 μl of AAV virus diluted solutions were preincubated in PBS with increasing concentration of CPPs ranging from 0.1 to 200 μM for 30 min. 200 μl of AAV or CPP/AAV complex solutions were added to cultured cells (1×10^6 cells per well). Cells are treated with either free AAV or CPP/AAV complexes for 4 h. and then the medium is replaced with fresh medium.
(§4) Viral mediated transgene expression was monitored by flow cytomety 2 days post-infection in HepG2 and Human neuronal HCN2. The percentage of GFP expressing cells were detected by flow cytometry and the increase of AAV infectivity was calculated based on the number of GFP-positive cells. Results are reported in FIGS. 5A-5D, 6A-6D, 7A-7D, 8A-8D, and 9A-9D.

[3] = test system: HepG2 cells; assay: AAV-1-GFP transduction with CPPs, flow cytometry; type: cell-based, human; details: 200 μM CPP; for cells expressing GFP: AAV-1 MOI of 500, HepG2, 5% in the absence of CPP
Experimental: as §1, §2, §3, §4

[4] = test system: HCN2 cells; assay: AAV-5-GFP transduction with CPPs, flow cytometry; type: cell-based, human; details: 200 μM CPP; for cells expressing GFP: AAV-5 MOI of 500, HCN2, 5% in the absence of CPP
Experimental: as §1, §2, §3, §4

[5] = test system: HepG2 cells; assay: AAV-5-GFP transduction with CPPs, flow cytometry; type: cell-based, human; details: 200 μM CPP; for cells expressing GFP: AAV-5 MOI of 500, HepG2, 5% in the absence of CPP
Experimental: as §1, §2, §3, §4

[6] = test system: HepG2 cells; assay: AAV-2 transfection of HepG2 cells with TAT-HA2 or LAH4 peptides (Liu et al., Molecular Therapy, 2014); type: cell-based, human; details: 200 μM, GFP-positive cells
[7] = test system: HCN2 cells; assay: AAV-6-GFP transduction with CPPs, flow cytometry; type: cell-based, human; details: for cells expressing GFP: 200 μM of CPP, AAV-6 MOI of 500, HCN2, 4% in the absence of CPP
Experimental: as §1, §2, §3, §4

[8] = test system: HepG2 cells; assay: AAV-6-GFP transduction with CPPs, flow cytometry; type: cell-based, human; details: 200 μM CPP; for cells expressing GFP: AAV-6 MOI of 500, HepG2, 5% in the absence of CPP
Experimental: as §1, §2, §3, §4

[9] = test system: HepG2 cells; details: AAV-2, HepG2, Liu et al., cited from earlier work
[10] = test system: HCN2 cells; assay: AAV-8-GFP transduction with CPPs, flow cytometry; type: cell-based, human; details: 200 μM CPP, AAV-8 MOI of 1000, HCN2; 5% in the absence of CPP
Experimental: as §1, §2, §3, §4

[11] = test system: HepG2 cells; assay: AAV-8-GFP transduction with CPPs, flow cytometry; type: cell-based, human; details: 200 μM CPP, AAV-8 MOI of 1000, HepG2; 5% in the absence of CPP
Experimental: as §1, §2, §3, §4

[12] = test system: HCN2 cells; assay: AAV-2-GFP transduction with CPPs, flow cytometry; type: cell-based, human; details: 200 μM CPP; for cells expressing GFP: AAV-2 MOI of 500, HCN2, 4% in the absence of CPP
Experimental: as §1, §2, §3, §4

[13] = test system: HepG2 cells; assay: AAV-2-GFP transduction with CPPs, flow cytometry; type: cell-based, human; details: 200 μM CPP; for cells expressing GFP: AAV-2 MOI of 500, HepG2, 4% in the absence of CPP
Experimental: as §1, §2, §3, §4

[14] = target: Adeno-associated virus AAV-2 encoding green fluorescent protein (adeno-associated virus serotype 2) (UniProt P03135); assay: cell-based or functional assay
[15] = test system: HepG2 and HCN2 cells; assay: AAV-1-GFP transduction with CPPs, statements for both cell lines; type: cell-based, human
Experimental: as §1, §2, §3, §4

[16] = test system: HepG2 and HCN2 cells; assay: AAV-8-GFP transduction with CPPs, statements for both cell lines; type: cell-based, human
Experimental: as §1, §2, §3, §4

[17] = test system: HepG2 and HCN2 cells; assay: AAV-2-GFP transduction with CPPs, statements for both cell lines; type: cell-based, human
Experimental: as §1, §2, §3, §4

[18] = test system: HepG2 and HCN2 cells; assay: AAV-6-GFP transduction with CPPs, statements for both cell lines; type: cell-based, human
Experimental: as §1, §2, §3, §4

[19] = test system: HepG2 and HCN2 cells; assay: AAV-5-GFP transduction with CPPs, statements for both cell lines; type: cell-based, human
Experimental: as §1, §2, §3, §4

[20] = target: Adeno-associated virus AAV-2 encoding green fluorescent protein (adeno-associated virus serotype 2) (UniProt P03135); assay: cell-based or functional assay; remark: listed apart in the source
[21] = 200 μM concentration of peptide
[22] = 1 μM concentration, both cell lines

CC(=O)N[C@@H](CCCCN)C(=O)N[C@@H](CCC(=O)O)C(=O)N[C@H](C(=O)N[C@@H](Cc1c[nH]c2ccccc12)C(=O)N[C@@H](Cc1c[nH]c2ccccc12)C(=O)N[C@@H](CCC(=O)O)C(=O)N[C@H](C(=O)N[C@@H](Cc1c[nH]c2ccccc12)C(=O)N[C@@H](Cc1c[nH]c2ccccc12)C(=O)N[C@H](C(=O)N[C@@H](CCC(=O)O)C(=O)N[C@@H](Cc1c[nH]c2ccccc12)C(=O)N[C@@H](CO)C(=O)N[C@@H](CCC(N)=O)C(=O)N1CCC[C@H]1C(=O)N[C@@H](CCCCN)C(=O)N[C@@H](CCCCN)C(=O)N[C@@H](CCCCN)C(=O)N[C@@H](CCCNC(=N)N)C(=O)N[C@@H](CCCCN)C(=O)N[C@H](C(=O)NCCS)C(C)C)[C@@H](C)O)[C@@H](C)O)[C@@H](C)O [PEP-1] (Ac-KETWWETWWTEWSQPKKKRKV-Cysteamide)
cytotoxicity [1]: 5%

CC(=O)N[C@@H](CCCCN)C(=O)N[C@@H](CCC(=O)O)C(=O)N[C@H](C(=O)N[C@@H](Cc1c[nH]c2ccccc12)C(=O)N[C@@H](Cc1ccccc1)C(=O)N[C@@H](CCC(=O)O)C(=O)N[C@H](C(=O)N[C@@H](Cc1c[nH]c2ccccc12)C(=O)N[C@@H](Cc1ccccc1)C(=O)N[C@H](C(=O)N[C@@H](CCC(=O)O)C(=O)N[C@@H](Cc1c[nH]c2ccccc12)C(=O)N[C@@H](CO)C(=O)N[C@@H](CCC(N)=O)C(=O)N1CCC[C@H]1C(=O)N[C@@H](CCCCN)C(=O)N[C@@H](CCCCN)C(=O)N[C@@H](CCCCN)C(=O)N[C@@H](CCCNC(=N)N)C(=O)N[C@@H](CCCCN)C(=O)N[C@H](C(=O)NCCS)C(C)C)[C@@H](C)O)[C@@H](C)O)[C@@H](C)O [PEP-2] (Ac-KETWFETWFTEWSQPKKKRKV-Cysteamide)
cytotoxicity [1]: 5%

CRRRQRRKKRGGDIMGEWGNEIFGAIAGFLG [TAT-HA2, reference compound]
cells expressing GFP [2]: 22%
increase of AAV-1 efficiency [2]: 3 fold
cells expressing GFP [3]: 27%
cells expressing GFP [4]: 10%
increase of AAV-5 efficiency ([4]; MOI of 500, HCN2): 2 fold
cells expressing GFP [5]: 11%
increase of AAV-5 efficiency ([5]; MOI of 500, HepG2): 3 fold
fold lower than the results obtained with the ADGN peptides [6]: 4 fold
increase of AAV-6 efficiency ([7]; 200 μM CPP, MOI of 500, HCN2): 3 fold
cells expressing GFP [7]: 22%
cells expressing GFP [8]: 35%
increase of AAV-6 efficiency ([8]; MOI of 500, HepG2): about 10 fold
GFP-positive cells [9, 21]: about 25%
GFP-positive cells ([9]; concentration of CPPs): 12%
cells expressing GFP [10]: 12%
cells expressing GFP [11]: 15%
cells expressing GFP [12]: 20%
increase of AAV-2 efficiency ([12]; MOI of 500, HCN2): 3 fold
cells expressing GFP [13]: 23%
increase of AAV-2 efficiency ([13]; MOI of 500, HepG2): 5 fold

KKALLALALHHLAHLALHLALALKKAC [LAH4, a leucine- and histidine-rich peptide]
fold lower than the results obtained with the ADGN peptides [6]: 2 fold
GFP-positive cells [9, 21]: ~45%
GFP-positive cells ([9]; concentration of CPPs): 12%

PEP-1-DOPA (peptide)
efficacy (GFP expressing 293 T cells) after incubation of the complexes in 50% serum [14]: 30 % reduction

PEP-1-PEG (peptide)
efficacy (GFP expressing 293 T cells) after incubation of the complexes in 50% serum [14]: 30 % reduction

βALRWWLRWASRWFSRWAWWR (not fully specified (residue 1, N-terminus); printed as βALRWWLRWASRWFSRWAWWR) [ADGN-109]
cells expressing GFP [2]: 62%
increase of AAV-1 efficiency [2]: 15 fold
cells expressing GFP [3]: 61%
increase of AAV-1 efficiency ([3]; MOI of 500, HepG2): 16 fold
cells expressing GFP [4]: 37%
cells expressing GFP [5]: 51%
impact on AAV-1 infectivity [15, 22]: significant impact
share of the final improvement obtained with 200 μM ([15]; 10 μM concentration of CPP, AAV-1, both cell lines): about 60%
cells expressing GFP [7]: 62%
cells expressing GFP [8]: 82%
impact on AAV-8 infectivity [16, 22]: significant impact
share of the final improvement obtained at 200 μM ([16]; 10 μM concentration, AAV-8, both cell lines): about 60%
impact on AAV-2 infectivity [17, 22]: significant impact
share of the final improvement obtained with 200 μM ([17]; 10 μM concentration of CPP, AAV-2, both cell lines): about 70%
cells expressing GFP [10]: 44%
cells expressing GFP [11]: 45%
impact on AAV-6 infectivity [18, 22]: significant impact
share of the final improvement obtained at 200 μM ([18]; 10 μM concentration, AAV-6, both cell lines): about 70%
cells expressing GFP [12]: 58%
cells expressing GFP [13]: 90%
impact on AAV-5 infectivity [19, 22]: significant impact
share of the final improvement obtained at 200 μM ([19]; 10 μM concentration, AAV-5, both cell lines): about 50%

KETWWETWWTEWSQPKKKRKV (not fully specified (N-terminus, C-terminus)) [PEP-1 (N-acetylated, C-terminal cysteamide; Example 5)]
level of GFP expressing cells (293 T cells, flow cytometry) after 1 h incubation of the complexes in 20% serum [20]: 60 % reduction
level of GFP expressing cells (293 T cells, flow cytometry) after 1 h incubation of the complexes in 50% serum [20]: 80 % reduction
